Consider 13 molecules from DBAASP.

≈ marks a conversion by molar mass, not a printed value.

What all share (assay): ≥ marks a high value that may be exact or a test limit, other limits are often not marked, values filed in µg/mL are converted to µM
For experiment [1], the system named is Mycobacterium tuberculosis H37Rv.
Experiment [2] deals with Candida albicans NCYC 1467.
Experiment [3] concerns Escherichia coli NCTC 10418.
Experiment [4] relates to Staphylococcus aureus NCTC 10788.
Experiment [5] concerns Enterococcus faecalis ATCC 29212.
Experiment [6] has as its system Escherichia coli ATCC 25922.
For experiment [7], the system named is Staphylococcus aureus ATCC 25923.
For a further experiment, the system named is Streptococcus agalactiae.
The subject of experiment [8] is Candida albicans ATCC 90028.
Experiment [9] deals with Staphylococcus aureus NCTC 8325.
Experiment [10] deals with Bacillus subtilis ATCC 6051.
The subject of experiment [11] is Pseudomonas aeruginosa ATCC 27853.
A further experiment concerns Streptococcus mutans.

The term MIC denotes the lowest concentration that inhibits growth of the organism. Low readings indicate a more susceptible organism, high ones a less susceptible organism. Take `CC[C@H](C)[C@H](NC(=O)[C@H](CCCCN)NC(=O)[C@@H](NC(=O)[C@H](Cc1ccccc1)NC(=O)[C@@H](NC(=O)[C@@H]1CCCN1C(=O)[C@H](CS)NC(=O)[C@H](C)N)[C@@H](C)CC)[C@@H](C)O)C(=O)N[C@@H](CCC(N)=O)C(=O)NCC(=O)N[C@H](C(=O)N[C@@H](CS)C(=O)N[C@@H](Cc1ccc(O)cc1)C(=O)N[C@@H](CCCN=C(N)N)C(=O)NCC(=O)O)[C@@H](C)O` [ACPIFTKIQGTCYRG]: in experiment [1], the MIC was 12.1 µM (≈ 20 µg/mL).
`CC[C@H](C)[C@H](NC(=O)[C@H](CC(=O)O)NC(=O)[C@H](CCCCN)NC(=O)[C@H](Cc1c[nH]c2ccccc12)NC(=O)[C@H](CC(C)C)NC(=O)[C@H](C)N)C(=O)N[C@@H](CC(C)C)C(=O)N[C@@H](CCCCN)C(=O)N[C@@H](CC(N)=O)C(=O)N[C@@H](C)C(=O)NCC(=O)N[C@@H](CCCCN)C(=O)N[C@@H](C)C(=O)N[C@@H](C)C(=O)N[C@@H](CC(C)C)C(=O)N[C@@H](CC(N)=O)C(=O)N[C@@H](CCC(=O)O)C(=O)N[C@H](C(=O)N[C@@H](CC(N)=O)C(=O)N[C@@H](CCC(N)=O)C(=O)N[C@H](C(=O)N[C@H](C(=O)N[C@@H](CCC(N)=O)C(N)=O)C(C)C)[C@@H](C)CC)[C@@H](C)CC` [ALWKDILKNAGKAALNEINQIVQ]: the results for the MIC in [2], in experiment [3] and in experiment [4] were at least 64 µM, at least 32 µM and at least 256 µM, respectively.
Turning to `CC(C)C[C@H](NC(=O)[C@H](C)N)C(=O)N[C@@H](Cc1ccc(O)cc1)C(=O)N[C@@H](CCCCN)C(=O)N[C@@H](CCCCN)C(=O)N[C@@H](Cc1ccccc1)C(=O)N[C@@H](CCCCN)C(=O)N[C@@H](CCCCN)C(=O)N[C@@H](CCCCN)C(=O)N[C@@H](CC(C)C)C(=O)N[C@@H](CC(C)C)C(=O)N[C@@H](CCCCN)C(=O)N[C@@H](CO)C(=O)N[C@@H](CC(C)C)C(=O)N[C@@H](CCCCN)C(=O)N[C@@H](CCCN=C(N)N)C(=O)N[C@@H](CC(C)C)C(=O)NCC(=O)O` [ALYKKFKKKLLKSLKRLG], the MIC in [5] was found to be 8.7 µM (≈ 18.8 µg/mL); in experiment [6], 8.7 µM (≈ 18.8 µg/mL); in experiment [7] it was 69.4 µM (≈ 150 µg/mL); in the experiment on Streptococcus agalactiae it was 4.3 µM (≈ 9.3 µg/mL).
For the molecule `CC[C@H](C)[C@H](NC(=O)[C@H](CC(C)C)NC(=O)[C@H](CCCCN)NC(=O)[C@H](CCCCN)NC(=O)[C@@H](NC(=O)[C@H](C)NC(=O)[C@H](CCCCN)NC(=O)[C@@H](NC(=O)[C@H](C)NC(=O)[C@H](Cc1cnc[nH]1)NC(=O)[C@@H]1CCCN1C(=O)[C@@H](NC(=O)[C@H](CC(C)C)NC(=O)[C@@H]1CCCN1C(=O)CNC(=O)[C@@H](NC(=O)[C@H](Cc1ccc(O)cc1)NC(=O)[C@H](CCCCN)NC(=O)[C@H](CCSC)NC(=O)[C@H](Cc1ccccc1)NC(=O)CN)[C@@H](C)CC)[C@@H](C)CC)C(C)C)[C@@H](C)CC)C(N)=O` [GFMKYIGPLIPHAVKAIKKLI], the results for the MIC in experiment [8], in experiment [6] and in experiment [9] were 25 µM (≈ 58.4 µg/mL), 6.25 µM (≈ 14.6 µg/mL) and 3.13 µM (≈ 7.31 µg/mL), respectively.
With `CC[C@H](C)[C@H](NC(=O)CNC(=O)[C@H](CCCCN)NC(=O)CNC(=O)[C@H](C)NC(=O)[C@H](Cc1ccccc1)NC(=O)[C@H](CCCCN)NC(=O)[C@H](CO)NC(=O)[C@H](Cc1ccccc1)NC(=O)[C@H](CC(C)C)NC(=O)CN)C(=O)N[C@@H](CCCCN)C(=O)N[C@@H](CC(N)=O)C(=O)N[C@@H](CC(C)C)C(=O)N[C@H](C(=O)N[C@@H](Cc1ccccc1)C(=O)N[C@@H](CCCCN)C(=O)NCC(=O)N[C@H](C(=O)N[C@@H](CCCCN)C(=O)N[C@@H](Cc1cnc[nH]1)C(=O)N[C@H](C(=O)NCC(=O)N[C@@H](CCCCN)C(=O)N[C@@H](CCC(=O)O)C(=O)N[C@H](C(=O)NCC(=O)N[C@@H](CCSC)C(=O)N[C@@H](CC(=O)O)C(=O)N[C@H](C(=O)N[C@H](C(=O)N[C@@H](CCCN=C(N)N)C(=O)N[C@H](C(=O)NCC(=O)N[C@H](C(=O)N[C@@H](CC(=O)O)C(=O)N[C@H](C(=O)N[C@@H](C)C(=O)NCC(=O)N[C@H]1CSSC[C@@H](C(=O)O)NC(=O)[C@H](CCC(=O)O)NC(=O)CNC(=O)[C@H](CCCCN)NC(=O)[C@H]([C@@H](C)CC)NC(=O)[C@H](CCCCN)NC1=O)C(C)C)[C@@H](C)CC)[C@@H](C)O)[C@@H](C)CC)C(C)C)C(C)C)[C@@H](C)CC)C(C)C)[C@@H](C)CC` [GLFSKFAGKGIKNLIFKGVKHIGKEVGMDVIRTGIDVAGCKIKGEC], the MIC in [8] is at least 50 µM; in experiment [6], 6 µM (≈ 29.2 µg/mL); in [9], 12.5 µM (≈ 60.8 µg/mL).
On to `CC[C@H](C)[C@H](NC(=O)[C@H](Cc1c[nH]c2ccccc12)NC(=O)[C@H](Cc1ccccc1)NC(=O)[C@H](CC(C)C)NC(=O)CN)C(=O)N[C@H](C(=O)N[C@@H](CCCCN)C(=O)N[C@@H](CCCCN)C(=O)N[C@H](C(=O)N[C@H](C(=O)NCC(=O)N[C@@H](CCCCN)C(=O)N[C@@H](CC(C)C)C(=O)N[C@@H](CCCN=C(N)N)C(=O)O)[C@@H](C)CC)[C@@H](C)O)[C@@H](C)CC` [GLFWIIKKTIGKLR], for which the MIC worked out at 9.56 µM (≈ 16 µg/mL) in [10], 9.56 µM (≈ 16 µg/mL) in experiment [6], 4.78 µM (≈ 8 µg/mL) in [11] and 76.5 µM (≈ 128 µg/mL) in experiment [7].
Turning to `CC[C@H](C)[C@H](NC(=O)CNC(=O)[C@H](CO)NC(=O)[C@H](CC(C)C)NC(=O)[C@H](CC(C)C)NC(=O)CN)C(=O)N[C@@H](CC(C)C)C(=O)NCC(=O)N[C@@H](C)C(=O)NCC(=O)N[C@@H](CCCCN)C(=O)N[C@@H](CCCCN)C(=O)N[C@H](C(=O)N[C@H](C(=O)O)C(C)C)[C@@H](C)CC` [GLLSGILGAGKKIV], the MIC in experiment [2] was at least 32 µM; in experiment [3] it was at least 64 µM; in experiment [4] it was at least 32 µM.
The molecule `CC(C)C[C@H](NC(=O)[C@H](CC(C)C)NC(=O)[C@H](CCCCN)NC(=O)[C@H](CCCCN)NC(=O)[C@H](CC(C)C)NC(=O)[C@H](CCCCN)NC(=O)[C@H](CCCCN)NC(=O)[C@H](CC(C)C)NC(=O)[C@H](CC(C)C)NC(=O)[C@H](CCCCN)NC(=O)[C@H](CCCCN)NC(=O)[C@H](CC(C)C)NC(=O)[C@@H](N)CCCCN)C(=O)N[C@@H](CCCCN)C(=O)O` [KLKKLLKKLKKLLK] returned a minimal inhibitory concentration (MIC) against Streptococcus mutans of 4.64 µM (≈ 8 µg/mL).
Turning to `CC[C@H](C)[C@H](NC(=O)[C@H](CC(C)C)NC(=O)[C@@H](N)CCCN=C(N)N)C(=O)N[C@@H](CCCN=C(N)N)C(=O)N[C@H](C(=O)N[C@@H](CCC(=O)O)C(=O)N[C@@H](CCCN=C(N)N)C(=O)N[C@@H](CC(=O)O)C(=O)N[C@@H](CO)C(=O)N[C@H](C(=O)N[C@@H](CCC(=O)O)C(=O)N[C@@H](C)C(=O)N[C@@H](CC(C)C)C(=O)N[C@@H](CCSC)C(=O)N[C@@H](CCCN=C(N)N)C(=O)N1CCC[C@H]1C(=O)N[C@H](C(=O)NCC(=O)N[C@@H](CCCCN)C(=O)O)[C@@H](C)CC)C(C)C)C(C)C` [RLIRVERDSVEALMRPIGK], the MIC in experiment [1] is at least 89.3 µM.
In the experiment on Streptococcus mutans, `CC[C@H](C)[C@H](NC(=O)[C@H](CCC(N)=O)NC(=O)[C@H](CCCCN)NC(=O)[C@@H](NC(=O)[C@H](CCC(N)=O)NC(=O)[C@H](CC(N)=O)NC(=O)[C@H](CC(C)C)NC(=O)[C@@H](NC(=O)[C@@H](N)CCCN=C(N)N)C(C)C)C(C)C)C(=O)N[C@@H](CC(C)C)C(=O)N[C@@H](CCCCN)C(=O)O` [RVLNQVKQILK] registered an MIC of at least 93.4 µM.
Same read-out and setting: the result for `NC(=O)[C@H](Cc1ccccc1)NC(=O)[C@H](Cc1c[nH]c2ccccc12)NC(=O)[C@H](CCCN=C(N)N)NC(=O)[C@H](Cc1c[nH]c2ccccc12)NC(=O)[C@H](CCCN=C(N)N)NC(=O)[C@H](Cc1c[nH]c2ccccc12)NC(=O)[C@H](CCCN=C(N)N)NC(=O)[C@@H]1CCCN1C(=O)[C@H](CO)NC(=O)CNC(=O)[C@H](CO)NC(=O)[C@@H]1CCCN1C(=O)[C@H](Cc1ccccc1)NC(=O)[C@H](Cc1c[nH]c2ccccc12)NC(=O)[C@H](CCCN=C(N)N)NC(=O)[C@H](Cc1c[nH]c2ccccc12)NC(=O)[C@H](CCCN=C(N)N)NC(=O)[C@H](Cc1c[nH]c2ccccc12)NC(=O)[C@@H](N)CCCN=C(N)N` [RWRWRWFPSGSPRWRWRWF] reads 11.5 µM (≈ 32 µg/mL); that for `NC(=O)[C@H](Cc1ccccc1)NC(=O)[C@H](Cc1c[nH]c2ccccc12)NC(=O)[C@H](CCCN=C(N)N)NC(=O)[C@H](Cc1c[nH]c2ccccc12)NC(=O)[C@H](CCCN=C(N)N)NC(=O)[C@H](Cc1c[nH]c2ccccc12)NC(=O)[C@H](CCCN=C(N)N)NC(=O)[C@H](Cc1ccccc1)NC(=O)[C@H](Cc1c[nH]c2ccccc12)NC(=O)[C@H](CCCN=C(N)N)NC(=O)[C@H](Cc1c[nH]c2ccccc12)NC(=O)[C@H](CCCN=C(N)N)NC(=O)[C@H](Cc1c[nH]c2ccccc12)NC(=O)[C@@H](N)CCCN=C(N)N` [RWRWRWFRWRWRWF], 6.76 µM (≈ 16 µg/mL).
`NCCCC[C@H](NC(=O)[C@H](CCC(=O)O)NC(=O)[C@H](CC(=O)O)NC(=O)[C@H](CCC(=O)O)NC(=O)[C@H](CC(=O)O)NC(=O)[C@H](CCC(=O)O)NC(=O)[C@H](CC(=O)O)NC(=O)[C@H](CCC(N)=O)NC(=O)[C@H](CCCN=C(N)N)NC(=O)[C@@H](N)CO)C(=O)N[C@@H](CCCN=C(N)N)C(=O)N[C@@H](CCCN=C(N)N)C(=O)N1CCC[C@H]1C(=O)N[C@@H](CCCN=C(N)N)C(=O)O` [SRQDEDEDEKRRPR] showed an MIC in [10] of at least 1000 µM.
